Legend:
[1] = Water solubility in aqueous buffer
Procedure: The solid compounds were added stepwise to the buffer solution. More substance is added once all the suspended material is dissolved until an equilibrium between undissolved and dissolved substance is reached. The suspension was mixed using a shaker (Heidolph Reax 2000) and treated 5 min in an ultrasound bath (Bandelin, Sonorex Super RK255H).

[2] = Relaxivity measurements at 1.41 T in water; assay type: physicochemical; conditions: 37° C., normalized to Gd
Procedure: (§1) Relaxivity measurements at 1.41 T were performed using a MiniSpec mq60 spectrometer (Bruker Analytik, Karlsruhe, Germany) operating at a resonance frequency of 60 MHz and a temperature of 37° C. The T1 relaxation times were determined using the standard inversion recovery (IR) method with a fixed relaxation delay of at least 5×T1. The variable inversion time (TI) was calculated automatically by the standard software of the MiniSpec mq60 (8 steps). The T2 measurements were performed by using a Carr-Purcell-Meiboom-Gill (CPMG) pulse sequence, applying a relaxation delay of at least 5×T1.
Each relaxivity measurement was performed using three different Gd concentrations (3 concentrations between 0.05 and 2 mM). […] Human plasma preparation: For each experiment fresh blood was taken from a volunteer using 10 mL citrate-tubes (Sarstedt S-Monovette 02.1067.001, 10 mL, Citrate). The 10 mL citrate-tubes were carefully inverted 10 times to mix blood and anticoagulant and centrifuged for 15 min at 1811 g at RT (Eppendorf, Centrifuge 5810R).
(§2) The relaxivities n (where i=1, 2) were calculated based on the measured relaxation rates Ri in water and plasma: […]

[3] = Relaxivity measurements at 1.41 T in human plasma; assay type: physicochemical; conditions: 37° C., normalized to Gd
Procedure: as §1, with “The” for “Relaxivity measurements at 1.41 T were performed using a MiniSpec mq60 spectrometer (Bruker Analytik, Karlsruhe, Germany) operating at a resonance frequency of 60 MHz and a temperature of 37° C. The”
Each relaxivity measurement was performed using three different Gd concentrations (3 concentrations between 0.05 and 2 mM).
as §2

OATP1B1 = molecular target: T1, OATP1B1 (Homo sapiens, UniProt Q9Y6L6); assay: Uptake into stable transfected OATP1B1 HEK 293 cells; assay type: cell-based; conditions: for Inhibition Rifampicine: uptake into OATP1B1-HEK 293 cells; for Uptake into OATP1B1-HEK 293 cells: 40 min incubation, relative to RC1 (Gd-EOB-DTPA)
T1 sequence (Q9Y6L6 1-691): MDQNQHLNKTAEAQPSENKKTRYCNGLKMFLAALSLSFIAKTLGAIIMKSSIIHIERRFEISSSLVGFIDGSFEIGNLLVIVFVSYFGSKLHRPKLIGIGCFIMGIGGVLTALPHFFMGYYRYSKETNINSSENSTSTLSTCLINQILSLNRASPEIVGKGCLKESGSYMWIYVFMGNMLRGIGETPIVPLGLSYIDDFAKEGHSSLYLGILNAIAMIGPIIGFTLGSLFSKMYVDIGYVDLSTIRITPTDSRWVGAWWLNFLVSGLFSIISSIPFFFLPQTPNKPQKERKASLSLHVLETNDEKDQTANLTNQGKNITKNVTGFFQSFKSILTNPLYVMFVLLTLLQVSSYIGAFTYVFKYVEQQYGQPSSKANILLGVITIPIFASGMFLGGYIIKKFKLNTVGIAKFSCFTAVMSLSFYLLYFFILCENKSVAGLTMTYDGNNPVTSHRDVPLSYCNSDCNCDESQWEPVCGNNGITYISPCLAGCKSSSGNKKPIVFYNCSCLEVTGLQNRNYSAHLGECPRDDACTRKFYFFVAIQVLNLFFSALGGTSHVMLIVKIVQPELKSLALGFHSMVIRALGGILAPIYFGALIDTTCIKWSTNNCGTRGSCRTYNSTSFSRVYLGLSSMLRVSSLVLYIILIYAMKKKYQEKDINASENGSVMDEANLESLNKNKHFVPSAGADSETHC
Procedure: (§3) Cryopreserved cells were shortly thawed in water bath and diluted in 10 mL warm culture medium (37° C.). After medium change the cells were grown for 3d in a 25 cm^2 cell culture flask. After 3 to 5d the cells were transferred into 75 cm^2 flasks. […] All test items were prepared in transport buffer at a final concentration of 100 M from stock solutions (180 to 500 mM concentration). The OATP1B1 HEK 293 cells were incubated with test solutions (test item in transport buffer 500 L) for 40 min on a thermoshaker without shaking (PHMP, Fa. Grant Bio). Triplicates were performed for each test item. After incubation the cells were washed with 2 mL of cold PBS (+) buffer (Dulbeccos PBS+, Fa. Gibco). […] As a reference standard Gd-EOB-DTPA (gadoxetate) is used in the same well plate.

OATP1B3 = molecular target: T2, OATP1B3 (Homo sapiens, UniProt Q9NPD5); assay: Uptake into stable transfected OATP1B3 HEK 293 cells; assay type: cell-based; conditions: for Inhibition Rifampicine: uptake into OATP1B3-HEK 293 cells; for Uptake into OATP1B3-HEK 293 cells: 40 min incubation, relative to RC1 (Gd-EOB-DTPA)
T2 sequence (Q9NPD5 1-702): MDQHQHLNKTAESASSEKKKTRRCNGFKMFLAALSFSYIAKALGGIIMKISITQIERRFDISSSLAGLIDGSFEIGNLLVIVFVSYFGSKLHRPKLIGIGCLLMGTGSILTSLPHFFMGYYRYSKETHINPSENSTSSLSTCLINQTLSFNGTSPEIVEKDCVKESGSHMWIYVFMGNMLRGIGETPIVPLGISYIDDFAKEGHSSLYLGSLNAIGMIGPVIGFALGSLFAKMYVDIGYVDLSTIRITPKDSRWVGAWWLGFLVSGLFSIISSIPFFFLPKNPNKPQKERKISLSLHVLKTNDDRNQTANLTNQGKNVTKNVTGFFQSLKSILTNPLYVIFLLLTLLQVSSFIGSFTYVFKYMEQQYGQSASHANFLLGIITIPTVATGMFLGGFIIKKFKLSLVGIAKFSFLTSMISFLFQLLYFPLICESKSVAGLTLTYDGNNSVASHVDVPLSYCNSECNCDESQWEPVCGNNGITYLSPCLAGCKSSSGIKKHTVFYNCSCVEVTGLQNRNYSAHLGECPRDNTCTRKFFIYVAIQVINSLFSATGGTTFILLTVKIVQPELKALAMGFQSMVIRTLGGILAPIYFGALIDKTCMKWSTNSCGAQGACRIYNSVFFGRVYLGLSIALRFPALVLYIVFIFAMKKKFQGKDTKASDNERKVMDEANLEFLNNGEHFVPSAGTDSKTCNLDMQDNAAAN
Procedure: as §3, with “100 µM” for “100 M”, “The OATP1B3” for “The OATP1B1”, “500 μL)” for “500 L)”

[4] = Partition coefficient (log P butanol/buffer); assay type: physicochemical
[5] = tested on: freshly isolated rat hepatocytes; assay: Uptake into freshly isolated rat hepatocytes; conditions: for Uptake rat hepatocytes: 100 μmol Gd/L, 10 min, 37° C., relative to RC1 (Gd-EOB-DTPA); for Inhibition Rifampicine: rat hepatocyte uptake, test item and Rifampicine 1:1, each 100 μM
[6] = aqueous buffer 10 mM Tris-HCl, pH 7.4, 20° C.
[7] = 1-butanol / 50 mM Tris-HCl, pH 7.4, room temperature

With CCOCCOCCOc1ccc(CCC[C@H](C(=O)O)N2CCN([C@H](CO)C(=O)[O-])CCN([C@H](CO)C(=O)[O-])CCN([C@H](CO)C(=O)[O-])CC2)cc1.[Gd+3] [Example 19, gadolinium (2R,2′R,2″R)-2,2′,2″-{10-[(1R)-1-carboxy-4-{4-[2-(2-ethoxyethoxy)ethoxy]phenyl}butyl]-1,4,7,10-tetraazacyclododecane-1,4,7-triyl}tris(3-hydroxypropanoate)] the Solubility [1, 6] was >410 mM, the r1 water [2] was 5.3 L/mmol/s and the r1 human plasma [3] was 9.0 L/mmol/s. The “Inhibition Rifampicine” value (OATP1B1) was 92 % inhibition, the “Inhibition Rifampicine” value (OATP1B3) was 96 % inhibition and the “Log P (partition coefficient butanol/buffer)” value [4, 7] was −0.95. The Uptake rat hepatocytes [5] was 92 % of RC1 and the “Inhibition Rifampicine” value [5] was 92 % inhibition.
With CCCC(C(=O)[O-])N1CCN(CC(=O)[O-])CCN(C(Cc2ccc(OCC)cc2)C(=O)O)CCN(CC(=O)[O-])CC1.[Gd+3] (centres unmarked) [Example 29, gadolinium 2-{7-[1-carboxy-2-(4-ethoxyphenyl)ethyl]-4,10-bis(carboxylatomethyl)-1,4,7,10-tetraazacyclododecan-1-yl}pentanoate] the Solubility [1, 6] was >305 mM, the r1 water [2] was 4.4 L/mmol/s and the r1 human plasma [3] was 7.5 L/mmol/s. The “Uptake into OATP1B1-HEK 293 cells” value (OATP1B1) was 493 % of RC1, the “Inhibition Rifampicine” value (OATP1B1) was 96 % inhibition and the “Uptake into OATP1B3-HEK 293 cells” value (OATP1B3) was 75 % of RC1. For the same compound, the “Inhibition Rifampicine” value (OATP1B3) was 99 % inhibition, the “Log P (partition coefficient butanol/buffer)” value [4, 7] was −0.53 and the Uptake rat hepatocytes [5] was 87 % of RC1. The “Inhibition Rifampicine” value [5] was 99 % inhibition.
In the case of CCOCCOCCOc1ccc(C[C@@H](C(=O)O)N2CCN(CC(=O)[O-])CCN(CC(=O)[O-])CCN(CC(=O)[O-])CC2)cc1.[Gd+3] [Example 3, gadolinium 2,2′,2″-{10-[(1S)-1-carboxy-2-{4-[2-(2-ethoxyethoxy)ethoxy]phenyl}ethyl]-1,4,7,10-tetraazacyclododecane-1,4,7-triyl}triacetate], the Solubility [1, 6] is reported as >331 mM, the r1 water [2] is reported as 4.3 L/mmol/s and the r1 human plasma [3] is reported as 6.5 L/mmol/s. The “Uptake into OATP1B1-HEK 293 cells” value (OATP1B1) was 63 % of RC1, the “Inhibition Rifampicine” value (OATP1B1) was 29 % inhibition and the “Uptake into OATP1B3-HEK 293 cells” value (OATP1B3) was 18 % of RC1. For the same compound, the “Inhibition Rifampicine” value (OATP1B3) was 89 % inhibition, the “Log P (partition coefficient butanol/buffer)” value [4, 7] was −1.61 and the Uptake rat hepatocytes [5] was 47 % of RC1. For the same compound, the “Inhibition Rifampicine” value [5] was 96 % inhibition.
In the case of CCOCCOCCOc1ccc(CCC[C@@H](C(=O)O)N2CCN([C@@H](CO)C(=O)[O-])CCN([C@H](CO)C(=O)[O-])CCN([C@@H](CO)C(=O)[O-])CC2)cc1.[Gd+3] [Example 35, gadolinium (2S,2'S)-2,2′-{4-[(1S)-1-carboxy-4-{4-[2-(2-ethoxyethoxy)ethoxy]phenyl}butyl]-10-[(1R)-1-carboxylato-2-hydroxyethyl]-1,4,7,10-tetraazacyclododecane-1,7-diyl}bis(3-hydroxypropanoate)], the Solubility [1, 6] is reported as >164 mM, the r1 water [2] is reported as 5.6 L/mmol/s and the r1 human plasma [3] is reported as 8.6 L/mmol/s. The “Inhibition Rifampicine” value (OATP1B1) was 87 % inhibition, the “Inhibition Rifampicine” value (OATP1B3) was 98 % inhibition and the “Log P (partition coefficient butanol/buffer)” value [4, 7] was −1.02.
With CCOCCOCCOc1ccc(CC(C(=O)O)N2CCN(CC(=O)[O-])CCN(C(C)C(=O)[O-])CCN(CC(=O)[O-])CC2)cc1.[Gd+3] (single isomer, unassigned) [Example 5, gadolinium 2-[7-(1-carboxy-2-{4-[2-(2-ethoxyethoxy)ethoxy]phenyl}ethyl)-4,10-bis(carboxylatomethyl)-1,4,7,10-tetraazacyclododecan-1-yl]propanoate] the Solubility [1, 6] was >59 mM, the r1 water [2] was 4.7 L/mmol/s and the r1 human plasma [3] was 6.9 L/mmol/s. For the same compound, the “Log P (partition coefficient butanol/buffer)” value [4, 7] was −1.52, the Uptake rat hepatocytes [5] was 28 % of RC1 and the “Inhibition Rifampicine” value [5] was 92 % inhibition.
CCOCCOCCOc1ccc(CC(C(=O)O)N2CCN(C(CCO)C(=O)[O-])CCN(C(CCO)C(=O)[O-])CCN(C(CCO)C(=O)[O-])CC2)cc1.[Gd+3] (centres unmarked) [Example 37, gadolinium-2,2′-{4-[1-carboxy-2-{4-[2-(2-ethoxyethoxy)ethoxy]phenyl}ethyl]-10-[1-carboxylato-3-hydroxypropyl]-1,4,7,10-tetraazacyclododecane-1,7-diyl}bis(4-hydroxybutanoate)] gave a Solubility [1, 6] of 18 mM, a r1 water [2] of 6.4 L/mmol/s and a r1 human plasma [3] of 8.4 L/mmol/s. For the same compound, the “Log P (partition coefficient butanol/buffer)” value [4, 7] was −1.16, the Uptake rat hepatocytes [5] was 26 % of RC1 and the “Inhibition Rifampicine” value [5] was 37 % inhibition.
Work on CCOCCOCCOc1ccc(CCC[C@@H](C(=O)O)N2CCN(C(CCO)C(=O)[O-])CCN(C(CCO)C(=O)[O-])CCN(C(CCO)C(=O)[O-])CC2)cc1.[Gd+3] (mixture of isomers) [Example 36, gadolinium-2,2′-{4-[(1S)-1-carboxy-4-{4-[2-(2-ethoxyethoxy)ethoxy]phenyl}butyl]-10-[1-carboxylato-3-hydroxypropyl]-1,4,7,10-tetraazacyclododecane-1,7-diyl}bis(4-hydroxybutanoate)] yielded a Solubility ([1]; pH 7.4) of 85 mM, a r1 water [2] of 6.1 L/mmol/s and a r1 human plasma [3] of 8.5 L/mmol/s. For the same compound, the “Log P (partition coefficient butanol/buffer)” value ([4]; pH 7.4) was −1.08.

Reference: patent US20260083864A1, “CONTRAST AGENTS FOR USE IN DIAGNOSTIC COMPUTED TOMOGRAPHY IMAGING” (Bayer Aktiengesellschaft, priority 2022, published 2026)
